Eight compounds from PubChem BioAssay (NCI) can be followed below.

Test systems include ACHN renal; HCC-2998 colon; HT29 colon; MCF7 breast; OVCAR-3 ovarian; OVCAR-4 ovarian; TK-10 renal; U251 CNS; UACC-257 melanoma; T-47D breast.
Experiment in all cases: DTP human tumour cell line panel, 48 h

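Where inhibition never reached the appropriate level, the endpoint shown equals the highest concentration tested. Otherwise, values were interpolated linearly from a five-concentration, 48-hour dose response in 96-well plates. GI50: concentration for 50% inhibition of growth. TGI denotes the concentration required for complete inhibition of growth.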 Bounds are passed on as bounds.

As usually defined, the GI50 is the concentration giving 50% growth inhibition. As usually defined, the TGI is the concentration giving total growth inhibition.

Consider `CC[C@]1(O)C[C@H]2CN(CCc3c([nH]c4ccccc34)C(C(=O)OC)(c3cc4c(cc3OC)N(C)[C@H]3[C@@](O)(C(=O)OC)[C@H](OC(C)=O)[C@]5(CC)[C@@H]6C[C@@H]6CN6CC[C@]43[C@@H]65)C2)C1` (stereo partly specified), for which the GI50 was 0.012 µM in the test with ACHN renal; 0.0045 µM with HCC-2998 colon; 0.00258 µM with HT29 colon; 0.0019 µM with MCF7 breast; 0.00184 µM in the test with OVCAR-3 ovarian; 0.0266 µM in the test on OVCAR-4 ovarian. Also, the results for the concentration for 50% growth inhibition (GI50) with TK-10 renal, with U251 CNS and with UACC-257 melanoma were 0.0404 µM, 0.00344 µM and 0.00509 µM, respectively. Also, the TGI in the test with ACHN renal is above 14.3 µM; in the test on HCC-2998 colon, 0.278 µM; in the test with HT29 colon, 0.0867 µM; with MCF7 breast it was above 14.3 µM; with OVCAR-3 ovarian it was 0.00945 µM; in the test on OVCAR-4 ovarian it was above 7.51 µM. In addition, the total growth inhibition concentration (TGI) is 5.62 µM with TK-10 renal, 0.527 µM with U251 CNS and above 8.64 µM in the test with UACC-257 melanoma.

Consider `Cc1cc(C(=O)CSC(=S)SC(C)(C)C)ccc1Cl`, for which the total growth inhibition concentration (TGI) with ACHN renal was 62.9 µM; in the test with HCC-2998 colon, 30.3 µM; with HT29 colon, 69 µM; with MCF7 breast, above 100 µM; in the test with OVCAR-3 ovarian it was 35.4 µM; in the test on OVCAR-4 ovarian, above 100 µM. For the same compound, the results for the TGI in the test with TK-10 renal, with U251 CNS and in the test on UACC-257 melanoma were 60 µM, 28.3 µM and 34.4 µM, respectively.

For `C=C(C)[C@@H]1CC[C@]2(CN)CC[C@]3(C)[C@H](CC[C@@H]4[C@@]5(C)CCCNC(C)(C)[C@@H]5CC[C@]43C)[C@@H]12`, the GI50 with ACHN renal is 1.77 µM; in the test on MCF7 breast, 1.27 µM; in the test with T-47D breast, 1.88 µM; with TK-10 renal, 1.86 µM; in the test with U251 CNS, 1.8 µM; in the test with UACC-257 melanoma it was 2.09 µM. Moreover, the TGI with ACHN renal worked out at 3.19 µM; with MCF7 breast it was 2.7 µM; with T-47D breast, 3.81 µM; with TK-10 renal, 3.52 µM; in the test with U251 CNS, 3.33 µM; in the test on UACC-257 melanoma it was 4.35 µM.

Regarding `CCSc1nc(N=Cc2ccccc2O)c2cn[nH]c2n1`, the GI50 in the test with ACHN renal is 29.8 µM; with HT29 colon, 30.7 µM; with MCF7 breast it was 19.9 µM; in the test with OVCAR-3 ovarian, 13.8 µM; in the test with OVCAR-4 ovarian, 35 µM; in the test with T-47D breast, 33.4 µM. Also, the GI50 is 9.67 µM in the test on TK-10 renal, 44.4 µM in the test with U251 CNS and 56.7 µM in the test with UACC-257 melanoma. Besides, the concentration for total growth inhibition (TGI) in the test on ACHN renal was above 100 µM; in the test on HT29 colon, above 100 µM; in the test with MCF7 breast, 59.4 µM; with OVCAR-3 ovarian, 61.2 µM; in the test with OVCAR-4 ovarian, above 100 µM; in the test on T-47D breast it was above 100 µM. Besides, the concentration for total growth inhibition (TGI) in the test with TK-10 renal is 36.6 µM; with U251 CNS, above 100 µM; with UACC-257 melanoma, above 100 µM.

Consider `NC(N)=Nc1nc2ccccc2o1`, for which the GI50 in the test on ACHN renal, in the test with HT29 colon, in the test on MCF7 breast, in the test with OVCAR-3 ovarian, in the test on OVCAR-4 ovarian and in the test with T-47D breast was above 100 µM in each case. In addition, the GI50 in the test with TK-10 renal was above 100 µM; in the test on U251 CNS it was above 100 µM; with UACC-257 melanoma it was 21.2 µM. In addition, the TGI in the test with ACHN renal, in the test on HT29 colon, with MCF7 breast, in the test with OVCAR-3 ovarian, with OVCAR-4 ovarian and in the test on T-47D breast was above 100 µM in each case. Further, the total growth inhibition concentration (TGI) with TK-10 renal, with U251 CNS and in the test with UACC-257 melanoma was above 100 µM throughout.

Take `O=c1cccc(C#CC#C[C@@H]2O[C@H]2CO)o1`: the GI50 with ACHN renal is 0.845 µM; in the test with HCC-2998 colon it was 0.217 µM; with HT29 colon, 0.429 µM; in the test with MCF7 breast it was 0.525 µM; in the test with OVCAR-3 ovarian it was 2.06 µM; in the test on T-47D breast it was 1.33 µM. The GI50 with TK-10 renal is 1.47 µM; with U251 CNS, 1.46 µM; in the test on UACC-257 melanoma, 2.17 µM. Besides, the TGI in the test on ACHN renal came to 2.08 µM; with HCC-2998 colon, 0.55 µM; with HT29 colon, 2.53 µM; in the test on MCF7 breast, 1.36 µM; in the test with OVCAR-3 ovarian, 3.69 µM; in the test with T-47D breast, 3.32 µM. Besides, the TGI in the test on TK-10 renal turned out to be 3.38 µM; in the test on U251 CNS, 3.07 µM; in the test with UACC-257 melanoma, 4.52 µM.

`O=C(O)c1ccc(CNCc2ccccc2)cc1`: the TGI in the test on ACHN renal, in the test on HT29 colon, in the test on MCF7 breast, in the test on OVCAR-3 ovarian, in the test on OVCAR-4 ovarian and in the test with T-47D breast was above 100 µM in each case. The concentration for total growth inhibition (TGI) in the test with TK-10 renal, in the test with U251 CNS and with UACC-257 melanoma was above 100 µM in each case.

In the case of `O=c1[nH]c(O)c(C=Nc2ccc(-c3nc4ccccc4o3)cc2)c(=O)[nH]1`, the GI50 in the test with ACHN renal is above 100 µM; in the test with OVCAR-3 ovarian, 15.6 µM; with OVCAR-4 ovarian it was 33 µM; in the test with T-47D breast it was 93.7 µM; in the test with TK-10 renal it was 40.6 µM; with U251 CNS, 23.8 µM. Moreover, the GI50 in the test with UACC-257 melanoma is 58.4 µM. Moreover, the TGI is above 100 µM with ACHN renal; 57.4 µM with OVCAR-3 ovarian; above 100 µM in the test on OVCAR-4 ovarian; above 100 µM in the test with T-47D breast; above 100 µM in the test with TK-10 renal; 75.9 µM with U251 CNS. This compound came in with a TGI in the test with UACC-257 melanoma above 100 µM.
